{"source": "ChEMBL document CHEMBL5154941", "about": "“Structural Modifications of Nimodipine Lead to Novel PDE1 Inhibitors with Anti-pulmonary Fibrosis Effects” (J Med Chem, 2022)", "key": {"Rattus norvegicus [1]": {"tested_on": "Rattus norvegicus", "assay": "Antifibrotic activity in bleomycin-induced Sprague-Dawley rat pulmonary fibrosis model assessed as increase in respiratory rate at 150 mg/kg, po administered daily for 28 days", "format": "functional, organism-based", "conditions": "time 28.0 day"}, "Rattus norvegicus [2]": {"tested_on": "Rattus norvegicus", "assay": "Antifibrotic activity in bleomycin-induced Sprague-Dawley rat lung fibrosis model assessed as decrease in lung fibrosis at 2.5 to 5 mg/kg, ip administered daily for 28 days by Masson's trichrome staining based analysis", "format": "functional, organism-based", "conditions": "dose 2.5-5 mg/kg, time 28.0 day"}, "HLF [3]": {"tested_on": "HLF", "assay": "Antifibrotic activity in TGF-beta induced HLF cell assessed as suppression of FN level incubated for 48 hrs by Western blot analysis", "format": "functional, cell-based", "conditions": "Homo sapiens, DDE = dose-dependent effect"}, "[4]": {"molecular_target": "High affinity cAMP-specific and IBMX-insensitive 3',5'-cyclic phosphodiesterase 8A (Homo sapiens, UniProt O60658)", "sequence (O60658 whole entry, the tested form may be a part)": "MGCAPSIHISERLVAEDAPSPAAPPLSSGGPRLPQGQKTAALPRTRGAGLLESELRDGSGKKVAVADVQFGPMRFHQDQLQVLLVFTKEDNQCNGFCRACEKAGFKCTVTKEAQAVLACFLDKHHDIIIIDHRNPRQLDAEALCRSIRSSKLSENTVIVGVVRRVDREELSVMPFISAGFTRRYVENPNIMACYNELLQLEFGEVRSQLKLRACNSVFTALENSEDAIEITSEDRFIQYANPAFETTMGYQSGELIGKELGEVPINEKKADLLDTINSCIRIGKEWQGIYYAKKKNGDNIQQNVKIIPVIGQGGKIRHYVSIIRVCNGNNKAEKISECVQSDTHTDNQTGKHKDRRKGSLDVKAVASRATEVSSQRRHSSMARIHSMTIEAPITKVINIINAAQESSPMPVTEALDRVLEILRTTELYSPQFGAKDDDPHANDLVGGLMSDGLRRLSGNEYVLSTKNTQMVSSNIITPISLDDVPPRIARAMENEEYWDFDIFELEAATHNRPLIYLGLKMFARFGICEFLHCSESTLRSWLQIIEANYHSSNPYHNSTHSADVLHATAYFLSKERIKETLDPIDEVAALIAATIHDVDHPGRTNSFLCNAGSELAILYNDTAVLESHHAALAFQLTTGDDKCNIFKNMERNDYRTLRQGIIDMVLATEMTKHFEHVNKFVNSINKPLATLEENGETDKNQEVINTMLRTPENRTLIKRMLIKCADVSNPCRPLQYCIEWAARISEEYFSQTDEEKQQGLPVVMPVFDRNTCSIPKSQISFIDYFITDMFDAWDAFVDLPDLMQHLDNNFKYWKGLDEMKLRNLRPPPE", "assay": "Inhibition of PDE8A (480 to 820 residues) (unknown origin) expressed in Escherichia coli BL21 using [3H]-cAMP as substrate at 10000 nM measured for 15 mins by liquid scintillation counter method"}, "Rattus norvegicus [5]": {"tested_on": "Rattus norvegicus", "assay": "Antifibrotic activity in bleomycin-induced Sprague-Dawley rat pulmonary fibrosis model assessed as decrease in enhanced pause at 150 mg/kg, po administered daily for 28 days", "format": "functional, organism-based", "conditions": "time 28.0 day"}, "[6]": {"assay": "Clearance in Sprague-Dawley rat at 5 mg/kg, iv", "format": "ADME, organism-based", "conditions": "in vivo"}, "Rattus norvegicus [7]": {"tested_on": "Rattus norvegicus", "assay": "Antifibrotic activity in bleomycin-induced Sprague-Dawley rat pulmonary fibrosis model assessed as decrease in relaxation time at 2.5 to 5 mg/kg, ip administered daily for 28 days", "format": "functional, organism-based", "conditions": "dose 2.5-5 mg/kg, time 28.0 day"}, "[8]": {"molecular_target": "cGMP-dependent 3',5'-cyclic phosphodiesterase (Homo sapiens, UniProt O00408)", "sequence (O00408 whole entry, the tested form may be a part)": "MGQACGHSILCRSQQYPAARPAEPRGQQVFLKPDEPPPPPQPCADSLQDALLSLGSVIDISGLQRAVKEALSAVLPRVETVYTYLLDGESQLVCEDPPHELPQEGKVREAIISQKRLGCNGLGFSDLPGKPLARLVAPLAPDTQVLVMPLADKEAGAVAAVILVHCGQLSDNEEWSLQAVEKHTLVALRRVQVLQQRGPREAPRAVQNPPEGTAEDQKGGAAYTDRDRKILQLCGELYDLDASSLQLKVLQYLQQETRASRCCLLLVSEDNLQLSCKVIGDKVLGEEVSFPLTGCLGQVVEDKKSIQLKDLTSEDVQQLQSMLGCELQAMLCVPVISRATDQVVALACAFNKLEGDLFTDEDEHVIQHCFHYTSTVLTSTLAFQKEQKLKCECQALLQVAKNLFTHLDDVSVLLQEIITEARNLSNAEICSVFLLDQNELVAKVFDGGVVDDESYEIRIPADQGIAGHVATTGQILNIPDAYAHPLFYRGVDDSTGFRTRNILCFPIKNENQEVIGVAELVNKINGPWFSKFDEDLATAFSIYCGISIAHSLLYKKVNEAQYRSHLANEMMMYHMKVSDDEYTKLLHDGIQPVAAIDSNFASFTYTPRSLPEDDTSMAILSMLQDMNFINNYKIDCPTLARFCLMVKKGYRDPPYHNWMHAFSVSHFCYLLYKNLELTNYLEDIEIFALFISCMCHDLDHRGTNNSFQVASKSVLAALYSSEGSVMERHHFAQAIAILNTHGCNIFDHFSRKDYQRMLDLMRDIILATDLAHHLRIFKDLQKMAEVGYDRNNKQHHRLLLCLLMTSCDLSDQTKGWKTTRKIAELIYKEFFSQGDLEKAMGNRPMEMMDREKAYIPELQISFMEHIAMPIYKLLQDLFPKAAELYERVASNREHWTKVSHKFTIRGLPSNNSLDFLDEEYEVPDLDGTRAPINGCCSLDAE", "assay": "Inhibition of PDE2A (580 to 919 residues) (unknown origin) expressed in Escherichia coli BL21 using [3H]-cGMP as substrate measured for 15 mins by liquid scintillation counter method"}, "[9]": {"molecular_target": "Voltage-gated inwardly rectifying potassium channel KCNH2 (Homo sapiens, UniProt Q12809)", "sequence (Q12809 whole entry)": "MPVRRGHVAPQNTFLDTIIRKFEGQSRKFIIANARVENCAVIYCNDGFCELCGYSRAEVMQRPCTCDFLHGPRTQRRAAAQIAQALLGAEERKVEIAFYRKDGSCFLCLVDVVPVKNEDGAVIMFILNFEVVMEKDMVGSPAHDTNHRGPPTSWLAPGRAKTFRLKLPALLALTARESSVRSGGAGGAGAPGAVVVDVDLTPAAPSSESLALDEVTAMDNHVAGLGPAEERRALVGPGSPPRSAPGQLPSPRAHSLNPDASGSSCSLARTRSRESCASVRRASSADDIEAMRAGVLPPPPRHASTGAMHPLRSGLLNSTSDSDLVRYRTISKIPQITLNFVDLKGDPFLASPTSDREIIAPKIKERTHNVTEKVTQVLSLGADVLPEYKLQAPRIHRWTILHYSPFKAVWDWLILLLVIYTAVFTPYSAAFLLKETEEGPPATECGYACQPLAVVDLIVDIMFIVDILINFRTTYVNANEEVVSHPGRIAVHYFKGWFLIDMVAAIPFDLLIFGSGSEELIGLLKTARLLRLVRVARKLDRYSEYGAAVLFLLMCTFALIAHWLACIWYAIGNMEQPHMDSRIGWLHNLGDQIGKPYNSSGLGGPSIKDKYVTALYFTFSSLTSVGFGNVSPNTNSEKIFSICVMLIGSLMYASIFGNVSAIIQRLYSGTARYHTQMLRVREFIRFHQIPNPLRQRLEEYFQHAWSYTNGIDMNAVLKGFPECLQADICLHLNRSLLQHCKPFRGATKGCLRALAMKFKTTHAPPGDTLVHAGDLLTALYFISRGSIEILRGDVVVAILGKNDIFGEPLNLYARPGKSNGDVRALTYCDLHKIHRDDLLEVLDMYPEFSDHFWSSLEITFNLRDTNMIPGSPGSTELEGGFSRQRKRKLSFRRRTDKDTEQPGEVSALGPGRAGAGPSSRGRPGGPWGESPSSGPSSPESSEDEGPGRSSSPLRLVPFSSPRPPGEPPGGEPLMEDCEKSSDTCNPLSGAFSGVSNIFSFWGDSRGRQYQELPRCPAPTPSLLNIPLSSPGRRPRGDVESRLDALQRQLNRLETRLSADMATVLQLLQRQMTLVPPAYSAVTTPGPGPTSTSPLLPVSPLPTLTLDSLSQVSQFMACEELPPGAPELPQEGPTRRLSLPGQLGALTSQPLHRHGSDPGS", "assay": "Inhibition of hERG ion channel expressed in CHO cells by automated patch clamp electrophysiology method", "format": "toxicity, cell-based"}, "[10]": {"molecular_target": "T1, High affinity cGMP-specific 3',5'-cyclic phosphodiesterase 9A (Homo sapiens, UniProt O76083)", "T1 sequence (O76083 whole entry, the tested form may be a part)": "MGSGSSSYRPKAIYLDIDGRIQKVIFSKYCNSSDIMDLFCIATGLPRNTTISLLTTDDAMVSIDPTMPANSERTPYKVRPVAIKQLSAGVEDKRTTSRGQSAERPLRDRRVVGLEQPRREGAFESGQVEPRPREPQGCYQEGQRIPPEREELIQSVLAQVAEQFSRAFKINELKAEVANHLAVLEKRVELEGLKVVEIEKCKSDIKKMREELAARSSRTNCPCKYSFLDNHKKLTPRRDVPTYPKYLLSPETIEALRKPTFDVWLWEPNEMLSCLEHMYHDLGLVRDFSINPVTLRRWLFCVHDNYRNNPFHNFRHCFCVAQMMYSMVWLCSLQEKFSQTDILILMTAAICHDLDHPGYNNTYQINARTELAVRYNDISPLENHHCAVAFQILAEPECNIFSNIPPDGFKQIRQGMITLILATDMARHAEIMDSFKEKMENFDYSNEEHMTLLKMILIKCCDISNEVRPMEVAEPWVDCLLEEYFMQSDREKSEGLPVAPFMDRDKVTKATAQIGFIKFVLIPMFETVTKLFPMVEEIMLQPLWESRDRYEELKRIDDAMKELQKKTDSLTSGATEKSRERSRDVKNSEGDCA", "assay": "Inhibition of PDE9A (181 to 506 residues) (unknown origin) expressed in Escherichia coli BL21 using [3H]-cGMP as substrate at 10000 nM measured for 15 mins by liquid scintillation counter method"}, "HLF [11]": {"tested_on": "HLF", "assay": "Antifibrotic activity in TGF-beta induced HLF cell assessed as decrease in alpha-SMA level at 10 to 20 uM incubated for 48 hrs by DAPI staining based immunofluorescence microscopic analysis", "format": "functional", "conditions": "Homo sapiens, dose 10-20 µM"}, "Rattus norvegicus [12]": {"tested_on": "Rattus norvegicus", "assay": "Antifibrotic activity in bleomycin-induced Sprague-Dawley rat lung fibrosis model assessed as decrease in alpha-smooth muscle actin level at 2.5 to 5 mg/kg, ip administered daily for 28 days by Western blot analysis", "format": "functional, organism-based", "conditions": "dose 2.5-5 mg/kg, time 28.0 day"}, "[13]": {"molecular_target": "High affinity 3',5'-cyclic-AMP phosphodiesterase 7A (Homo sapiens, UniProt Q13946)", "sequence (Q13946 whole entry, the tested form may be a part)": "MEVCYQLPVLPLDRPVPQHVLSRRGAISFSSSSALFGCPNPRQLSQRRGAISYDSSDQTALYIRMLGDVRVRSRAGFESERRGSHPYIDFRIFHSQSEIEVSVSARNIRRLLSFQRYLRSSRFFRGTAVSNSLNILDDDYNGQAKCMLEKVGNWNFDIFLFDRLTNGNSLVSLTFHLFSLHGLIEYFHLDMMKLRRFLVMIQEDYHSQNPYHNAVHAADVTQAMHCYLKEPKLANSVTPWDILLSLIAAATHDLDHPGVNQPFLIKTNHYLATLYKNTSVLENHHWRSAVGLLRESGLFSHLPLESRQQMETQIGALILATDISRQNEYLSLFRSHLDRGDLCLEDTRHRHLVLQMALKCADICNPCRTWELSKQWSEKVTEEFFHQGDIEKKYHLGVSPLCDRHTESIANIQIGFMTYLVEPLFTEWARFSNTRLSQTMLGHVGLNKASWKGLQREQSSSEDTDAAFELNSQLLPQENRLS", "assay": "Inhibition of PDE7A1 (130-482 residues) (unknown origin) expressed in Escherichia coli BL21 using [3H]-cAMP as substrate measured for 15 mins by liquid scintillation counter method"}, "[14]": {"molecular_target": "Dual specificity calcium/calmodulin-dependent 3',5'-cyclic nucleotide phosphodiesterase 1A (Homo sapiens, UniProt P54750)", "sequence (P54750 whole entry, the tested form may be a part)": "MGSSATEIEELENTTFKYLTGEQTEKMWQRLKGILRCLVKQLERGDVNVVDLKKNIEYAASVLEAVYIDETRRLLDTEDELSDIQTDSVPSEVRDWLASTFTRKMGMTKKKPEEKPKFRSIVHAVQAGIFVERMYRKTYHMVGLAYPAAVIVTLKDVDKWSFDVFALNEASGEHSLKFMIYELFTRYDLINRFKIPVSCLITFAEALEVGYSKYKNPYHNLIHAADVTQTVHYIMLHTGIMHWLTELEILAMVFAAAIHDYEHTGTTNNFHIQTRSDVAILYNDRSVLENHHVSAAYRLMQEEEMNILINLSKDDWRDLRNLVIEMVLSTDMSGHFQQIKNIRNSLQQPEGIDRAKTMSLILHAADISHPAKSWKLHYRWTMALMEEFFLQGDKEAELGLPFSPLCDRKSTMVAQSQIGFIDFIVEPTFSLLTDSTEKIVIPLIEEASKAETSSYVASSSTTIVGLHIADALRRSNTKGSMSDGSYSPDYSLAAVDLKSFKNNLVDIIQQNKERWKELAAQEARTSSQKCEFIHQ", "assay": "Inhibition of PDE1A (142 to 552 residues) (unknown origin) expressed in Escherichia coli BL21 measured for 15 mins by liquid scintillation counter method"}, "HLF [15]": {"tested_on": "HLF", "assay": "Antifibrotic activity in TGF-beta induced HLF cell assessed as decrease in FN level at 10 to 20 uM incubated for 48 hrs by DAPI staining based immunofluorescence microscopic analysis", "format": "functional", "conditions": "Homo sapiens, dose 10-20 µM"}, "Cytochrome P450 2C9": {"molecular_target": "Cytochrome P450 2C9 (Homo sapiens, UniProt P11712)", "sequence (P11712 whole entry)": "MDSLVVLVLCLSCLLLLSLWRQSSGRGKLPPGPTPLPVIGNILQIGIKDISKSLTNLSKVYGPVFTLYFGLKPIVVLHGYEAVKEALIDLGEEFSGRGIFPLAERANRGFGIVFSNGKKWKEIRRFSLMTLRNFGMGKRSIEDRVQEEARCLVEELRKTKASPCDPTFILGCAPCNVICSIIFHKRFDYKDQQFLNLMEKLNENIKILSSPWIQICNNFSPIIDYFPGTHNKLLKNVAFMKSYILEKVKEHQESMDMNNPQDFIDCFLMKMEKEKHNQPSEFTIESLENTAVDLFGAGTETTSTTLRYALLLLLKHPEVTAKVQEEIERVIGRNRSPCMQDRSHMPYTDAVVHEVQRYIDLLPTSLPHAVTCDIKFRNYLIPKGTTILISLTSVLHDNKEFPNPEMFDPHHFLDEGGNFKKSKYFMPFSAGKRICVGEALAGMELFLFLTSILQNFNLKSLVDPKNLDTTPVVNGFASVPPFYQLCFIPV", "assay": "Inhibition of CYP2C9 in human liver microsomes at 25 uM in the presence of NADPH", "format": "ADME, Microsome"}, "Rattus norvegicus [16]": {"tested_on": "Rattus norvegicus", "assay": "Antifibrotic activity in bleomycin-induced Sprague-Dawley rat pulmonary fibrosis model assessed as decrease in end-expiratory pause at 150 mg/kg, po administered daily for 28 days", "format": "functional, organism-based", "conditions": "time 28.0 day"}, "[17]": {"molecular_target": "T1, High affinity cGMP-specific 3',5'-cyclic phosphodiesterase 9A", "assay": "Inhibition of PDE9A2 (181 to 506 residues) (unknown origin) expressed in Escherichia coli BL21 using [3H]-cGMP as substrate measured for 15 mins by liquid scintillation counter method"}, "Rattus norvegicus [18]": {"tested_on": "Rattus norvegicus", "assay": "Antifibrotic activity in bleomycin-induced Sprague-Dawley rat lung fibrosis model assessed as suppression of TGF-beta1 level at 2.5 to 5 mg/kg, ip administered daily for 28 days by Western blot analysis", "format": "functional, organism-based", "conditions": "dose 2.5-5 mg/kg, time 28.0 day"}, "Rattus norvegicus [19]": {"tested_on": "Rattus norvegicus", "assay": "Antifibrotic activity in bleomycin-induced Sprague-Dawley rat lung fibrosis model assessed as increase in cGMP level at 2.5 to 5 mg/kg, ip administered daily for 28 days by ELISA analysis", "format": "functional, organism-based", "conditions": "dose 2.5-5 mg/kg, time 28.0 day"}, "Rattus norvegicus [20]": {"tested_on": "Rattus norvegicus", "assay": "Antifibrotic activity in bleomycin-induced Sprague-Dawley rat pulmonary fibrosis model assessed as decrease in enhanced pause at 2.5 to 5 mg/kg, ip administered daily for 28 days", "format": "functional, organism-based", "conditions": "dose 2.5-5 mg/kg, time 28.0 day"}, "Rattus norvegicus [21]": {"tested_on": "Rattus norvegicus", "assay": "Antifibrotic activity in bleomycin-induced Sprague-Dawley rat lung fibrosis model assessed as decrease in collagen I level at 2.5 to 5 mg/kg, ip administered daily for 28 days by Western blot analysis", "format": "functional, organism-based", "conditions": "dose 2.5-5 mg/kg, time 28.0 day"}, "[22]": {"assay": "AUC (0 to t) in Sprague-Dawley rat at 5 mg/kg, iv", "format": "ADME, organism-based", "design": "dose 5 mg/kg, route iv", "conditions": "in vivo"}, "Rattus norvegicus [23]": {"tested_on": "Rattus norvegicus", "assay": "Antifibrotic activity in bleomycin-induced Sprague-Dawley rat lung fibrosis model assessed as decrease in collagen deposition at 2.5 to 5 mg/kg, ip administered daily for 28 days by Masson's trichrome staining based analysis", "format": "functional, organism-based", "conditions": "dose 2.5-5 mg/kg, time 28.0 day"}, "Rattus norvegicus [24]": {"tested_on": "Rattus norvegicus", "assay": "Antifibrotic activity in bleomycin-induced Sprague-Dawley rat pulmonary fibrosis model assessed as decrease in relaxation time at 150 mg/kg, po administered daily for 28 days", "format": "functional, organism-based", "conditions": "time 28.0 day"}, "HLF [25]": {"tested_on": "HLF", "assay": "Antifibrotic activity in TGF-beta induced HLF cell assessed as suppression of Col-I level at 10 uM incubated for 48 hrs by Western blot analysis", "format": "functional, cell-based", "conditions": "Homo sapiens"}}, "note": "The source made the active and inactive calls. The rule behind the calls is not given here."}
{"compound": "CC1=C(C(=O)O[C@H](C)c2ccccc2)C(c2ccc3c(cnn3C)c2)C(C(=O)O[C@H](C)c2ccccc2)=C(C)N1", "values": [{"measurement": "Activity", "setting": "Rattus norvegicus [1]", "result": "Active"}, {"measurement": "Activity", "setting": "Rattus norvegicus [2]", "result": "Active"}, {"measurement": "Activity", "setting": "HLF [3]", "result": "Dde"}, {"measurement": "inhibition", "setting": "[4]", "result": "< 50", "unit": "%"}, {"measurement": "Activity", "setting": "Rattus norvegicus [5]", "result": "Active"}, {"measurement": "clearance", "setting": "[6]", "result": 18.4, "unit": "mL/min/kg"}, {"measurement": "Activity", "setting": "Rattus norvegicus [7]", "result": "Active"}, {"measurement": "IC50", "setting": "[8]", "result": 5.13, "unit": "µM"}, {"measurement": "IC50", "setting": "[9]", "result": "> 40", "unit": "µM"}, {"measurement": "inhibition", "setting": "[10]", "result": "< 50", "unit": "%"}, {"measurement": "Activity", "setting": "HLF [11]", "result": "Active"}, {"measurement": "Activity", "setting": "Rattus norvegicus [12]", "result": "Active"}, {"measurement": "IC50", "setting": "[13]", "result": 1.4, "unit": "µM"}, {"measurement": "IC50", "setting": "[14]", "result": 0.145, "unit": "µM"}, {"measurement": "Activity", "setting": "HLF [15]", "result": "Active"}, {"measurement": "IC50", "setting": "Cytochrome P450 2C9", "result": 4.6, "unit": "µM"}, {"measurement": "Activity", "setting": "Rattus norvegicus [16]", "result": "Active"}, {"measurement": "IC50", "setting": "[17]", "result": "> 10", "unit": "µM"}, {"measurement": "Activity", "setting": "Rattus norvegicus [18]", "result": "Active"}, {"measurement": "Activity", "setting": "Rattus norvegicus [19]", "result": "Active"}, {"measurement": "Activity", "setting": "Rattus norvegicus [20]", "result": "Active"}, {"measurement": "Activity", "setting": "Rattus norvegicus [21]", "result": "Active"}, {"measurement": "AUC(0-t)", "setting": "[22]", "result": 4560, "unit": "ng·h/mL"}, {"measurement": "Activity", "setting": "Rattus norvegicus [23]", "result": "Active"}, {"measurement": "Activity", "setting": "Rattus norvegicus [24]", "result": "Active"}, {"measurement": "Activity", "setting": "HLF [25]", "result": "Active"}]}
